In brackets after ≈: the same amount, converted by molar mass.

For one data set, the system named is Streptococcus mutans. The data set can be described thus: Antibacterial activity against Streptococcus mutans. Format: functional.
The subject of data set [1] is Staphylococcus aureus. Put plainly: Antibacterial activity against Staphylococcus aureus ATCC29213 assessed as inhibition of visible growth incubated for 16 to 18 hrs by CLSI method. The format is functional. The note with it: time 16-18 hrs, read-out: MIC100.
For the next data set, the system named is Enterococcus faecalis. Put plainly: Antibacterial activity against Enterococcus faecalis ATCC29212 assessed as inhibition of visible growth incubated for 16 to 18 hrs by CLSI method. The format is functional. The note with it: time 16-18 hrs, read-out: MIC100.
Another data set relates to Bacillus subtilis. The data set can be described thus: Antibacterial activity against Bacillus subtilis assessed as inhibition of visible growth incubated for 16 to 18 hrs by CLSI method. The format is functional. The note with it: time 16-18 hrs, read-out: MIC100.
A further data set relates to Micrococcus luteus. The data set can be described thus: Antibacterial activity against Micrococcus luteus assessed as inhibition of visible growth incubated for 16 to 18 hrs by CLSI method. The format is functional. The note with it: time 16-18 hrs, read-out: MIC100.
The test system of the next data set is Escherichia coli. Put plainly: Antibacterial activity against Escherichia coli ATCC25922 assessed as inhibition of visible growth incubated for 16 to 18 hrs by CLSI method. Format: functional. The note with it: time 16-18 hrs, read-out: MIC100.
The test system of data set [2] is Stenotrophomonas maltophilia. Put plainly: Antibacterial activity against Stenotrophomonas maltophilia assessed as inhibition of visible growth incubated for 16 to 18 hrs by CLSI method. The note with it: time 16-18 hrs, read-out: MIC100. The format is functional.
Data set [3] has as its system Salmonella enterica. Put plainly: Antibacterial activity against Salmonella enterica 349812 assessed as inhibition of visible growth incubated for 16 to 18 hrs by CLSI method. Format: functional. The note with it: time 16-18 hrs, read-out: MIC100.
In data set [4] the test system is Salmonella enterica. Put plainly: Antibacterial activity against Salmonella enterica 8389 assessed as inhibition of visible growth incubated for 16 to 18 hrs by CLSI method. The format is functional. The note with it: time 16-18 hrs, read-out: MIC100.
Data set [5] is described as follows: Hemolytic activity in sheep RBC assessed as hemolysis incubated for 1 hr. The format is ADME, cell-based, Ovis aries, Erythrocyte. The note with it: sheep red blood cells (erythrocytes).
Data set [6] can be described thus: Selectivity index, HC50 for hemolytic activity in sheep RBC to MIC for antibacterial activity against Staphylococcus aureus ATCC29213. The format is toxicity. The note with it: sheep red blood cells (erythrocytes), read-out: Selectivity Index.
The subject of data set [7] is Staphylococcus aureus. The data set can be described thus: Antibacterial activity against methicillin-resistant Staphylococcus aureus clinical isolate M-11 assessed as inhibition of visible growth incubated for 16 to 18 hrs by CLSI method. The note with it: time 16-18 hrs, read-out: MIC100. Format: functional.
In data set [8] the test system is Staphylococcus aureus. The data set can be described thus: Antibacterial activity against methicillin-resistant Staphylococcus aureus clinical isolate M-12 assessed as inhibition of visible growth incubated for 16 to 18 hrs by CLSI method. The note with it: time 16-18 hrs, read-out: MIC100. The format is functional.
For data set [9], the system named is Staphylococcus aureus. Put plainly: Antibacterial activity against methicillin-resistant Staphylococcus aureus clinical isolate M-13 assessed as inhibition of visible growth incubated for 16 to 18 hrs by CLSI method. The note with it: time 16-18 hrs, read-out: MIC100. Format: functional.
Data set [10] relates to Staphylococcus aureus. The data set can be described thus: Antibacterial activity against methicillin-resistant Staphylococcus aureus clinical isolate M-14 assessed as inhibition of visible growth incubated for 16 to 18 hrs by CLSI method. The format is functional. The note with it: time 16-18 hrs, read-out: MIC100.
Data set [11] deals with Staphylococcus aureus. Put plainly: Antibacterial activity against methicillin-resistant Staphylococcus aureus clinical isolate M-15 assessed as inhibition of visible growth incubated for 16 to 18 hrs by CLSI method. The format is functional. The note with it: time 16-18 hrs, read-out: MIC100.
Data set [12] has as its system Staphylococcus aureus. Put plainly: Antibacterial activity against methicillin-resistant Staphylococcus aureus clinical isolate M-16 assessed as inhibition of visible growth incubated for 16 to 18 hrs by CLSI method. Format: functional. The note with it: time 16-18 hrs, read-out: MIC100.
Data set [13] concerns Staphylococcus aureus. Put plainly: Antibacterial activity against methicillin-resistant Staphylococcus aureus clinical isolate M-17 assessed as inhibition of visible growth incubated for 16 to 18 hrs by CLSI method. The format is functional. The note with it: time 16-18 hrs, read-out: MIC100.
Data set [14] has as its system Staphylococcus aureus. Put plainly: Antibacterial activity against methicillin-resistant Staphylococcus aureus clinical isolate M-18 assessed as inhibition of visible growth incubated for 16 to 18 hrs by CLSI method. The format is functional. The note with it: time 16-18 hrs, read-out: MIC100.
The subject of data set [15] is Staphylococcus aureus. The data set can be described thus: Antibacterial activity against methicillin-resistant Staphylococcus aureus clinical isolate M-19 assessed as inhibition of visible growth incubated for 16 to 18 hrs by CLSI method. The format is functional. The note with it: time 16-18 hrs, read-out: MIC100.
The test system of data set [16] is Staphylococcus aureus. The data set can be described thus: Antibacterial activity against methicillin-resistant Staphylococcus aureus clinical isolate M-20 assessed as inhibition of visible growth incubated for 16 to 18 hrs by CLSI method. The note with it: time 16-18 hrs, read-out: MIC100. Format: functional.

Turning to `CC(C)(C)c1ccc(CCc2ccc(C(C)(C)C)c(O)c2)cc1O`, the MIC in the data set with Streptococcus mutans amounted to 8 µg/mL (≈ 24.5 µM).

Take `C=CCc1ccc(O)c(-c2cc(CC=C)ccc2OCCC[N+](C)(C)CC(=O)NCCCCC)c1.[Br-]`: the MIC stood at 2 µg/mL with Staphylococcus aureus [1]; 4 µg/mL in the data set on Enterococcus faecalis; 1 µg/mL in the data set with Bacillus subtilis; 1 µg/mL with Micrococcus luteus; 8 µg/mL in the data set on Escherichia coli; 16 µg/mL in data set [2]. Further, the MIC in the data set with Salmonella enterica [3] was determined as 32 µg/mL; in the data set with Salmonella enterica [4] it was 16 µg/mL; in the data set on Staphylococcus aureus [7], 8 µg/mL; in the data set with Staphylococcus aureus [8], 2 µg/mL; with Staphylococcus aureus [9], 4 µg/mL; in the data set with Staphylococcus aureus [10] it was 2 µg/mL. Moreover, the MIC with Staphylococcus aureus [11], in the data set on Staphylococcus aureus [12], in the data set on Staphylococcus aureus [13], with Staphylococcus aureus [14], in the data set with Staphylococcus aureus [15] and in the data set with Staphylococcus aureus [16] was 2 µg/mL throughout. Besides, the HC50 at 1 h in data set [5] stood at 678 µg/mL. Moreover, the selectivity ratio in [6] is 339.

Take `C=CCc1ccc(O)c(-c2cc(CC=C)ccc2OCC[N+](C)(C)CC(=O)N(CCCC)CCCC)c1.[Br-]`: the MIC with Staphylococcus aureus [1] came out at 2 µg/mL; with Enterococcus faecalis, 4 µg/mL; in the data set with Bacillus subtilis it was 1 µg/mL; with Micrococcus luteus, 2 µg/mL; in the data set on Escherichia coli, 8 µg/mL; in [2] it was 16 µg/mL. The MIC in the data set with Salmonella enterica [3] was 16 µg/mL; with Salmonella enterica [4] it was 16 µg/mL; in the data set with Staphylococcus aureus [7], 4 µg/mL; in the data set with Staphylococcus aureus [8] it was 4 µg/mL; in the data set on Staphylococcus aureus [9], 4 µg/mL; with Staphylococcus aureus [10], 4 µg/mL. In addition, the MIC in the data set with Staphylococcus aureus [11] was found to be 4 µg/mL; with Staphylococcus aureus [12], 2 µg/mL; in the data set on Staphylococcus aureus [13], 2 µg/mL; with Staphylococcus aureus [14], 2 µg/mL; in the data set on Staphylococcus aureus [15], 2 µg/mL; in the data set with Staphylococcus aureus [16] it was 2 µg/mL. Moreover, the HC50 at 1 h in data set [5] is 786 µg/mL. Moreover, the selectivity ratio in data set [6] was 393.

As to `C=CCc1ccc(OCC[N+](C)(C)CC(=O)NCCC)c(-c2ccc(OCC[N+](C)(C)CC(=O)NCCC)c(CC=C)c2)c1.[Br-].[Br-]`, the MIC in the data set with Staphylococcus aureus [1] was determined as 16 µg/mL; in the data set on Enterococcus faecalis it was 8 µg/mL; in the data set on Bacillus subtilis, 16 µg/mL; in the data set on Micrococcus luteus, 16 µg/mL; in the data set with Escherichia coli, 64 µg/mL; in [2] it was 64 µg/mL. Also, the MIC in the data set with Salmonella enterica [3] amounted to 64 µg/mL; in the data set on Salmonella enterica [4], 64 µg/mL; with Staphylococcus aureus [7], 8 µg/mL; in the data set on Staphylococcus aureus [8] it was 8 µg/mL; in the data set with Staphylococcus aureus [9], 8 µg/mL; in the data set on Staphylococcus aureus [10], 8 µg/mL. Further, the MIC turned out to be 4 µg/mL in the data set with Staphylococcus aureus [11]; 4 µg/mL with Staphylococcus aureus [12]; 4 µg/mL in the data set with Staphylococcus aureus [13]; 8 µg/mL in the data set on Staphylococcus aureus [14]; 8 µg/mL in the data set with Staphylococcus aureus [15]; 8 µg/mL in the data set on Staphylococcus aureus [16]. In addition, the concentration for 50% haemolysis (HC50) at 1 h in [5] is 703 µg/mL. The selectivity ratio in [6] turned out to be 43.9.

Take `C=CCc1ccc(O)c(-c2cc(CC=C)ccc2OCCCC[N+](C)(C)CC(=O)NCCCCCC)c1.[Br-]`: the MIC was 2 µg/mL with Staphylococcus aureus [1]; 4 µg/mL in the data set on Enterococcus faecalis; 1 µg/mL in the data set with Bacillus subtilis; 2 µg/mL in the data set with Micrococcus luteus; 16 µg/mL with Escherichia coli; 32 µg/mL in [2]. Moreover, the MIC in the data set on Salmonella enterica [3] stood at 32 µg/mL; in the data set with Salmonella enterica [4], 64 µg/mL; in the data set with Staphylococcus aureus [7], 8 µg/mL; in the data set on Staphylococcus aureus [8] it was 8 µg/mL; in the data set with Staphylococcus aureus [9], 8 µg/mL; in the data set with Staphylococcus aureus [10], 8 µg/mL. Besides, the MIC with Staphylococcus aureus [11] was found to be 8 µg/mL; with Staphylococcus aureus [12] it was 4 µg/mL; in the data set with Staphylococcus aureus [13] it was 4 µg/mL; in the data set on Staphylococcus aureus [14], 4 µg/mL; in the data set with Staphylococcus aureus [15] it was 8 µg/mL; in the data set on Staphylococcus aureus [16], 4 µg/mL. For the same compound, the HC50 at 1 h in data set [5] is 698 µg/mL. Besides, the selectivity ratio in [6] is 349.

On to `C=CCc1ccc(OCCC[N+](C)(C)CC(=O)N(CCCC)CCCC)c(-c2ccc(OCCC[N+](C)(C)CC(=O)N(CCCC)CCCC)c(CC=C)c2)c1.[Br-].[Br-]`, for which the MIC in the data set on Staphylococcus aureus [1] came out at 4 µg/mL; with Enterococcus faecalis, 2 µg/mL; in the data set on Bacillus subtilis, 2 µg/mL; in the data set with Micrococcus luteus, 1 µg/mL; in the data set on Escherichia coli, 4 µg/mL; in data set [2], 4 µg/mL. The MIC in the data set with Salmonella enterica [3] came to 16 µg/mL; in the data set on Salmonella enterica [4] it was 8 µg/mL; with Staphylococcus aureus [7] it was 8 µg/mL; with Staphylococcus aureus [8], 8 µg/mL; with Staphylococcus aureus [9], 8 µg/mL; in the data set with Staphylococcus aureus [10], 8 µg/mL. Moreover, the MIC in the data set on Staphylococcus aureus [11], with Staphylococcus aureus [12], in the data set on Staphylococcus aureus [13], in the data set with Staphylococcus aureus [14], in the data set on Staphylococcus aureus [15] and in the data set on Staphylococcus aureus [16] was 8 µg/mL each time. In addition, the HC50 at 1 h in data set [5] stood at 1080 µg/mL. For the same compound, the selectivity ratio in [6] was 270.

`C=CCc1ccc(O)c(-c2cc(CC=C)ccc2OCCCC[N+](C)(C)CC(=O)N(CCCC)CCCC)c1.[Br-]`: the MIC in the data set with Staphylococcus aureus [1] turned out to be 2 µg/mL; with Enterococcus faecalis it was 4 µg/mL; in the data set with Bacillus subtilis it was 1 µg/mL; in the data set on Micrococcus luteus, 2 µg/mL; in the data set with Escherichia coli it was 8 µg/mL; in data set [2] it was 32 µg/mL. The MIC with Salmonella enterica [3] was determined as 32 µg/mL; in the data set with Salmonella enterica [4], 64 µg/mL; with Staphylococcus aureus [7], 16 µg/mL; with Staphylococcus aureus [8] it was 16 µg/mL; in the data set on Staphylococcus aureus [9] it was 8 µg/mL; in the data set with Staphylococcus aureus [10] it was 8 µg/mL. Besides, the MIC in the data set with Staphylococcus aureus [11], in the data set on Staphylococcus aureus [12], in the data set with Staphylococcus aureus [13], with Staphylococcus aureus [14], in the data set with Staphylococcus aureus [15] and in the data set with Staphylococcus aureus [16] was 8 µg/mL each time. Moreover, the HC50 at 1 h in [5] came out at 712 µg/mL. Further, the selectivity ratio in data set [6] stood at 356.

What is called HC50 is the concentration that lyses half of the red blood cells.

For the origin of these results see ChEMBL document CHEMBL4831516, “Development of Membrane-Active Honokiol/Magnolol Amphiphiles as Potent Antibacterial Agents against Methicillin-Resistant Staphylococcus aureus (MRSA)” (J Med Chem, 2021).
